Source: PubChem BioAssay AID256 (DTP/NCI, 2004)
Values joined by “and” are separate entries in the source; they are usually repeats but may differ in a detail not shown here. Equal entries are not always repeated. Toxic doses and inconclusive results are not listed.

System: CD2F1 mice, L1210 leukemia ip, survival T/C
Assay: NCI In Vivo Anticancer Drug Screen. Data for tumor model L1210 Leukemia (intraperitoneal) in CD2F1 (CDF1) mice
Conditions: higher = longer survival
Method in brief: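 Ratio T/C, where T is the treated-group value and C the vehicle-dosed control value, from mice implanted with a transplantable tumor.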

[1] = endpoint: mean survival time, dose: 50.0 mg/kg/injection, schedule: Q04DX003 (ip), vehicle: saline
[2] = endpoint: mean survival time, dose: 100.0 mg/kg/injection, schedule: Q04DX003 (ip), vehicle: saline
[3] = endpoint: median survival time, dose: 50.0 mg/kg/injection, schedule: Q01DX005 (ip), vehicle: saline
[4] = endpoint: median survival time, dose: 200.0 mg/kg/injection, schedule: Q01DX005 (ip), vehicle: saline
[5] = endpoint: median survival time, dose: 400.0 mg/kg/injection, schedule: Q01DX005 (ip), vehicle: saline
[6] = endpoint: median survival time, dose: 400.0 mg/kg/injection, schedule: Q01DX005 (ip), vehicle: suspension in saline
[7] = endpoint: median survival time, dose: 800.0 mg/kg/injection, schedule: Q01DX005 (ip), vehicle: saline
[8] = endpoint: mean survival time, dose: 25.0 mg/kg/injection, schedule: Q04DX003 (ip), vehicle: saline
[9] = endpoint: mean survival time, dose: 100.0 mg/kg/injection, schedule: Q04DX003 (ip), vehicle: saline with Tween-80
[10] = endpoint: mean survival time, dose: 200.0 mg/kg/injection, schedule: Q04DX003 (ip), vehicle: saline with Tween-80
[11] = endpoint: mean survival time, dose: 400.0 mg/kg/injection, schedule: Q04DX003 (ip), vehicle: saline with Tween-80

Question: How did the T/C [1] turn out when `CN(CC(=O)O)Cc1ccccc1` was run?
Answer: The T/C was 102 % of control.

Question: And the T/C [2]?
Answer: The T/C was 100 % of control.

Question: And the T/C (endpoint: mean survival time, dose: 200.0 mg/kg/injection, schedule: Q04DX003 (ip), vehicle: saline)?
Answer: Its T/C is 108 % of control.

Question: Which T/C [3] does the source give for `CN1COc2c(n(C)c(=O)[nH]c2=O)C1` here?
Answer: Its T/C is 98 % of control.

Question: And the T/C (endpoint: median survival time, dose: 50.0 mg/kg/injection, schedule: Q01DX005 (ip), vehicle: suspension in saline)?
Answer: Its T/C is 101 % of control.

Question: And the T/C (endpoint: median survival time, dose: 100.0 mg/kg/injection, schedule: Q01DX005 (ip), vehicle: saline)?
Answer: The T/C was 98 % of control.

Question: What about the T/C (endpoint: median survival time, dose: 100.0 mg/kg/injection, schedule: Q01DX005 (ip), vehicle: suspension in saline) of the same molecule?
Answer: The T/C was 103 % of control.

Question: What about the T/C [4] of the same molecule?
Answer: Its T/C is 101 % of control.

Question: What about the T/C (endpoint: median survival time, dose: 200.0 mg/kg/injection, schedule: Q01DX005 (ip), vehicle: suspension in saline) of the same molecule?
Answer: Its T/C is 102 % of control.

Question: What about the T/C [5] of the same molecule?
Answer: The T/C was 109 % of control.

Question: What about the T/C [6] of the same molecule?
Answer: The T/C was 119 % of control.

Question: What about the T/C [7] of the same molecule?
Answer: Its T/C is 108 % of control.

Question: What about the T/C (endpoint: median survival time, dose: 800.0 mg/kg/injection, schedule: Q01DX005 (ip), vehicle: suspension in saline) of the same molecule?
Answer: Its T/C is 116 % of control.

Question: Which T/C (endpoint: mean survival time, dose: 5.0 mg/kg/injection, schedule: Q01DX009 (ip), vehicle: saline with Tween-80) does the source give for `CC(C)=CCC/C(C)=C/CNCCc1c[nH]c2ccccc12` here?
Answer: Its T/C is 102 % of control.

Question: And the T/C (endpoint: mean survival time, dose: 10.0 mg/kg/injection, schedule: Q01DX009 (ip), vehicle: saline with Tween-80)?
Answer: Its T/C is 98 % of control.

Question: And the T/C (endpoint: mean survival time, dose: 20.0 mg/kg/injection, schedule: Q01DX009 (ip), vehicle: saline with Tween-80)?
Answer: The T/C was 100 % of control.

Question: Which T/C (endpoint: mean survival time, dose: 100.0 mg/kg/injection, schedule: Q01DX001 (ip), vehicle: saline with Tween-80) does the source give for `O=C(Cc1ccccc1)SC(=O)Cc1ccccc1` here?
Answer: Its T/C is 102 % of control.

Question: And the T/C (endpoint: mean survival time, dose: 200.0 mg/kg/injection, schedule: Q01DX001 (ip), vehicle: saline with Tween-80)?
Answer: Its T/C is 94 % of control.

Question: What about the T/C (endpoint: mean survival time, dose: 400.0 mg/kg/injection, schedule: Q01DX001 (ip), vehicle: saline with Tween-80) of the same molecule?
Answer: Its T/C is 102 % of control.

Question: Which T/C [3] does the source give for `O=c1[nH]cnc2c1nnn2C1OC(CO)C(O)C1O` (stereo not drawn) here?
Answer: Its T/C is 121 % of control.

Question: And the T/C [4]?
Answer: Its T/C is 156 % of control.

Question: What about the T/C [5] of the same molecule?
Answer: Its T/C is 160 % of control.

Question: What about the T/C [6] of the same molecule?
Answer: Its T/C is 90 % of control.

Question: What about the T/C [7] of the same molecule?
Answer: The T/C was 111 % of control.

Question: With `N.N.N.N.N.N#CN=C(N)N.[Co+3].[O-][Cl+3]([O-])([O-])[O-]` as the molecule, how does the T/C (endpoint: mean survival time, dose: 25.0 mg/kg/injection, schedule: Q04DX002 (ip), vehicle: saline) read?
Answer: The T/C was 97 % of control.

Question: And the T/C (endpoint: mean survival time, dose: 50.0 mg/kg/injection, schedule: Q04DX002 (ip), vehicle: saline)?
Answer: The T/C was 101 % of control.

Question: What about the T/C (endpoint: mean survival time, dose: 100.0 mg/kg/injection, schedule: Q04DX002 (ip), vehicle: saline) of the same molecule?
Answer: The T/C was 101 % of control.

Question: Which T/C (endpoint: mean survival time, dose: 100.0 mg/kg/injection, schedule: Q01DX001 (ip), vehicle: carboxymethylcellulose (CMC)) does the source give for `Nc1cccc2[nH]c(=O)c3ccccc3c12` here?
Answer: Its T/C is 100 % of control.

Question: And the T/C (endpoint: mean survival time, dose: 200.0 mg/kg/injection, schedule: Q01DX001 (ip), vehicle: carboxymethylcellulose (CMC))?
Answer: Its T/C is 97 % of control.

Question: And the T/C (endpoint: mean survival time, dose: 400.0 mg/kg/injection, schedule: Q01DX001 (ip), vehicle: carboxymethylcellulose (CMC))?
Answer: The T/C was 100 % of control.

Question: What does the source list for `C[N+](C)(C)c1cc2c(nn1)Nc1ccccc1S2`?
Answer: T/C (endpoint: mean survival time, dose: 3.12 mg/kg/injection, schedule: Q01DX009 (ip), vehicle: Klucel (hydroxypropylcellulose) (HPC)): 97 % of control and 100 % of control; T/C (endpoint: mean survival time, dose: 6.25 mg/kg/injection, schedule: Q01DX009 (ip), vehicle: Klucel (hydroxypropylcellulose) (HPC)): 102 % of control and 103 % of control; T/C (endpoint: mean survival time, dose: 12.5 mg/kg/injection, schedule: Q01DX009 (ip), vehicle: Klucel (hydroxypropylcellulose) (HPC)): 87 % of control and 100 % of control; T/C (endpoint: mean survival time, dose: 25.0 mg/kg/injection, schedule: Q01DX009 (ip), vehicle: Klucel (hydroxypropylcellulose) (HPC)): 102 % of control and 103 % of control; T/C [8]: 111 % of control; T/C (endpoint: mean survival time, dose: 50.0 mg/kg/injection, schedule: Q01DX009 (ip), vehicle: Klucel (hydroxypropylcellulose) (HPC)): 94 % of control and 100 % of control; T/C [1]: 117 % of control; T/C (endpoint: mean survival time, dose: 100.0 mg/kg/injection, schedule: Q01DX009 (ip), vehicle: Klucel (hydroxypropylcellulose) (HPC)): 96 % of control and 103 % of control; T/C [2]: 109 % of control

Question: What does the source list for `O=C(CNC(=O)OCc1ccccc1)NCC(=O)NC(CO)C(=O)O` (stereo not drawn)?
Answer: T/C [9]: 95 % of control; T/C [10]: 104 % of control; T/C [11]: 96 % of control

Question: `CCN(CC)CC#CCCCCN(CC)CC` was tested. Which T/C (endpoint: mean survival time, dose: 25.0 mg/kg/injection, schedule: Q01DX009 (ip), vehicle: saline with Tween-80) did it give?
Answer: Its T/C is 101 % of control.

Question: What about the T/C [8] of the same molecule?
Answer: Its T/C is 96 % of control.

Question: And the T/C (endpoint: mean survival time, dose: 50.0 mg/kg/injection, schedule: Q01DX009 (ip), vehicle: saline with Tween-80)?
Answer: Its T/C is 95 % of control.

Question: And the T/C [1]?
Answer: The T/C was 94 % of control.

Question: What about the T/C (endpoint: mean survival time, dose: 100.0 mg/kg/injection, schedule: Q01DX009 (ip), vehicle: saline with Tween-80) of the same molecule?
Answer: Its T/C is 93 % of control.

Question: What about the T/C [9] of the same molecule?
Answer: The T/C was 94 % of control.

Question: And the T/C [2]?
Answer: Its T/C is 94 % of control.

Question: Which T/C [9] does the source give for `Cc1cccc(Cl)c1NC(=O)CCCl` here?
Answer: The T/C was 97 % of control.

Question: What about the T/C [10] of the same molecule?
Answer: The T/C was 106 % of control.

Question: And the T/C [11]?
Answer: The T/C was 98 % of control.

Question: How did the T/C (endpoint: median survival time, dose: 25.0 mg/kg/injection, schedule: Q04DX003 (ip), vehicle: saline with Tween-80) turn out when `O=S(=O)(CC(Br)C(Br)CO)c1ccccc1` (stereo not drawn) was run?
Answer: The T/C was 111 % of control.

Question: What about the T/C (endpoint: median survival time, dose: 50.0 mg/kg/injection, schedule: Q04DX003 (ip), vehicle: saline with Tween-80) of the same molecule?
Answer: The T/C was 122 % of control.

Question: And the T/C (endpoint: median survival time, dose: 100.0 mg/kg/injection, schedule: Q04DX003 (ip), vehicle: saline with Tween-80)?
Answer: Its T/C is 111 % of control.

Question: And the T/C (endpoint: median survival time, dose: 200.0 mg/kg/injection, schedule: Q04DX003 (ip), vehicle: saline with Tween-80)?
Answer: Its T/C is 100 % of control.

Question: Which T/C [9] does the source give for `Cc1ccc(N=C2C=CC(=O)O2)cc1` here?
Answer: Its T/C is 98 % of control.

Question: What about the T/C [10] of the same molecule?
Answer: Its T/C is 104 % of control.

Question: And the T/C [11]?
Answer: The T/C was 101 % of control.

Question: Which T/C (endpoint: mean survival time, dose: 3.12 mg/kg/injection, schedule: Q01DX009 (ip), vehicle: saline with Tween-80) does the source give for `CN(C)c1ccc(C2OC3(CCCCC3)C[N+]23CCCC3)cc1` (stereo not drawn) here?
Answer: Its T/C is 101 % of control.

Question: What about the T/C (endpoint: mean survival time, dose: 6.25 mg/kg/injection, schedule: Q01DX009 (ip), vehicle: saline with Tween-80) of the same molecule?
Answer: Its T/C is 97 % of control.

Question: And the T/C (endpoint: mean survival time, dose: 12.5 mg/kg/injection, schedule: Q01DX009 (ip), vehicle: saline with Tween-80)?
Answer: The T/C was 97 % of control.

Question: Which T/C (endpoint: mean survival time, dose: 100.0 mg/kg/injection, schedule: Q01DX009 (ip), vehicle: saline sonified) does the source give for `Nc1cnc2nc(N)[nH]c(=O)c2c1` here?
Answer: The T/C was 97 % of control.

Question: And the T/C [9]?
Answer: Its T/C is 93 % of control.

Question: What about the T/C (endpoint: mean survival time, dose: 200.0 mg/kg/injection, schedule: Q01DX009 (ip), vehicle: saline sonified) of the same molecule?
Answer: Its T/C is 102 % of control.

Question: And the T/C [10]?
Answer: The T/C was 93 % of control.

Question: And the T/C (endpoint: mean survival time, dose: 400.0 mg/kg/injection, schedule: Q01DX009 (ip), vehicle: saline sonified)?
Answer: Its T/C is 93 % of control.

Question: What about the T/C [11] of the same molecule?
Answer: Its T/C is 95 % of control.
